Experiments:
[1] = Lipid nanoparticle size and polydispersity by dynamic light scattering; format: physicochemical; conditions: LNP of cationic lipid/DSPC/cholesterol/PEG-lipid 50:10:38.5:1.5 with mRNA
Protocol: (§1) Briefly, a cationic lipid provided herein, DSPC, cholesterol, and PEG-lipid were solubilized in ethanol at a molar ratio of 50:10:38.5:1.5, and mRNA were diluted in 10 to 50 mM citrate buffer, pH=4. The LNPs were prepared at a total lipid to mRNA weight ratio of approximately 10:1 to 30:1 by mixing the ethanolic lipid solution with the aqueous mRNA solution at a volume ratio of 1:3 using a microfluidic apparatus, total flow rate ranging from 9-30 mL/min. Ethanol were thereby removed and replaced by DPBS using dialysis. Finally, the lipid nanoparticles were filtered through a 0.2 μm sterile filter.
(§2) Lipid nanoparticle size were determined by dynamic light scattering using a Malvern Zetasizer Nano ZS (Malvern UK) using a 173° backscatter detection mode. The encapsulation efficiency of lipid nanoparticles were determined using a Quant-it Ribogreen RNA quantification assay kit (Thermo Fisher Scientific, UK) according to the manufacturer's instructions.

[2] = Encapsulation efficiency of lipid nanoparticles (Quant-it Ribogreen RNA assay); format: physicochemical
Protocol: as §1, §2

[3] = Apparent pKa of LNP formulations by TNS fluorescence assay; conditions: LNP cationic lipid/DSPC/cholesterol/DMG-PEG 50/10/38.5/1.5 mol %, pH 3 to 9
Protocol: TNS was prepared as a 300 uM stock solution in distilled water. LNP formulations were diluted to 0.1 mg/ml total lipid in 3 mL of buffered solutions containing 50 mM sodium citrate, 50 mM sodium phosphate, 50 mM sodium borate, and 30 mM sodium chloride where the pH ranged from 3 to 9. An aliquot of the TNS solution was added to give a final concentration of 0.1 mg/ml and following vortex mixing fluorescence intensity was measured at room temperature in a Molecular Devices Spectramax iD3 spectrometer using excitation and mission wavelengths of 325 nm and 435 nm. A sigmoidal best fit analysis was applied to the fluorescence data and the pKa value was measured as the pH giving rise to half—maximal fluorescent intensity.

[4] = LNP of cationic lipid/DSPC/cholesterol/PEG-lipid 50:10:38.5:1.5 with mRNA

SMILES	polydispersity [1]	size (nm) [1]	Encapsulation Efficiency [2, 4]	Apparant Pka [3]	Encapsulation Efficiency ([2]; cell printed without % sign)
CCCCCCCCCCCCCOP(=O)(NCCCN(C)C)OCCCCCCCC(=O)OC(CCCCCCCC)CCCCCCCC (stereo not drawn) [Compound 39]	0.408	69.38 nm	100.0%	6.52	
CCCCCCCCCCCCCOP(=O)(NC1CCN(C2CCOCC2)CC1)OCCCCCCCCCCCCC [Compound 16]	0.113	305.4 nm	79.9%	7.75	
CCCCCCCCC(CCCCCC)COP(=O)(NCCN(CCC)CCO)OCC(CCCCCC)CCCCCCCC (stereo not drawn) [Compound 53]	0.329	90.86 nm	95.1%	5.679	
CCCCCCCCC(CCCCCC)COP(=O)(OCCN1CCCC1)OCC(CCCCCC)CCCCCCCC (stereo not drawn) [Compound 76]	0.24	74.49 nm	76.6%	4.666	
CCCCCCCCC(CCCC)COP(=O)(NCCN1CCCC1)OCC(CCCC)CCCCCCCC (stereo not drawn) [Compound 73]	0.101	70.54 nm	91.4%	7.003	
CCCCCCCCCOP(=O)(NCCCN(C)C)OCCCCCCCC(=O)OC(CCCCCCCC)CCCCCCCC (stereo not drawn) [Compound 32]	0.077	80.54 nm	101.1%	8.96	
CCCCCCCCCOP(=O)(NCCN1CCCCC1)OCCCCCCCC(=O)OC(CCCCCCCC)CCCCCCCC (stereo not drawn) [Compound 33]	0.091	128.5 nm	98.2%	7.74	
CCCCCCCCCCC(CCCCCCCC)COP(=O)(NCCN1CCCC1)OCC(CCCCCCCC)CCCCCCCCCC (stereo not drawn) [Compound 79]	0.053	71.16 nm	96.3%	6.457	
CCCCCCCCCOP(=O)(NCCCN(C)C)OCCCCCCCCC [Compound 4]	0.055	72.06 nm	73.2%	8.26	
CCCCCCC(CCCCCC)COP(=O)(NCCN(CC)CC)OCC(CCCCCC)CCCCCC [Compound 82]	0.138	70.5 nm	86.9%	6.097	
CCCCCCCCC(CCCCCC)COP(=O)(NCCCN(C)C)OCC(CCCCCC)CCCCCCCC (stereo not drawn) [Compound 7]	0.1	73.54 nm	96.3%	7.20	
CC/C=C\CCC(CC/C=C\CC)COP(=O)(NCCN(CC)CC)OCC(CC/C=C\CC)CC/C=C\CC [Compound 88]	0.205	179.7 nm	49.0%	6.571	
CCCCCCCCC(CCCCCC)COP(=O)(NCCN1CCC(O)C1)OCC(CCCCCC)CCCCCCCC (stereo not drawn) [Compound 63]	0.148	53.85 nm	97.0%	6.892	
CCCCCCCCC(CCCCCC)COP(=O)(NCCN(CC)CC)OCC(CCCCCC)CCCCCCCC (stereo not drawn) [Compound 49]	0.191	58.02 nm	95.1%	6.47	
CCCCCCCCC(CCCCCCCC)OC(=O)CCCCCCCOP(=O)(NCCCN(C)C)OCCCCCCCC(=O)OC(CCCCCCCC)CCCCCCCC [Compound 36]	0.091	63.97 nm	95.3%	6.20	
CCCCCCCCC(CCCCCCCC)OC(=O)CCCCCCCOP(=O)(NCCCCN(C)C)OCCCCCCC (stereo not drawn) [Compound 44]	0.187	51.72 nm	94.0%	5.17	
CCCCCCCCCOP(=O)(OCCCCCCCCC)OCCCN(C)C [Compound 8]	0.187	56.41 nm	93.2%	8.10	
CCCCCCCC(CCCCCCC)COP(=O)(NCCN1CCCC1)OCC(CCCCCCC)CCCCCCC [Compound 85]	0.153	53.57 nm	71.7%	5.216	
CCCCCCCCC(CCCCCC)COP(=O)(NCCN(CCO)CCCCC)OCC(CCCCCC)CCCCCCCC (stereo not drawn) [Compound 55]	0.132	62.03 nm	90.9%	5.615	
CCCCCCCCCOP(=O)(NCCN(C)C)OCCCCCCCCC [Compound 3]	0.154	53.41 nm	61.6%	8.59	

SMILES	polydispersity [1]	size (nm) [1]	Encapsulation Efficiency [2, 4]	Apparant Pka [3]	Encapsulation Efficiency ([2]; cell printed without % sign)
CCCCCCCCC(CCCCC)COP(=O)(NCCN1CCCC1)OCC(CCCCC)CCCCCCCC (stereo not drawn) [Compound 74]	0.162	66.97 nm	96.9%	6.381	
CCCCCCCCC(CCCCCC)COP(=O)(NCCN1CCCC1)OCC(CCCCCC)CCCCCCCC (stereo not drawn) [Compound 24]	0.131	81.53 nm	98.0%	6.63	
CCCCCCC(CCCCCC)COP(=O)(NCCN(CC)CC)OCC(CCCCCC)CCCCCC [Compound 65]	0.085	95.97 nm	94.1%	6.133	
CCCCCCCCC(CCCC)COP(=O)(NCCN(CC)CC)OCC(CCCC)CCCCCCCC (stereo not drawn) [Compound 75]	0.023	138.2 nm	92.1%	6.603	
CCCCCCCCCCCCCOP(=O)(NCCCN(C)C)OCCCCCCCCCCCCC [Compound 10]	0.116	138.3 nm	96.2%	6.94	
CCCCCCCCCCCCCOP(=O)(NCCN1CCCCC1)OCCCCCCCC(=O)OC(CCCCCCCC)CCCCCCCC (stereo not drawn) [Compound 34]	0.258	58.48 nm	98.4%	7.45	
CCCCCCCCC(CCCCCC)COP(=O)(NCCN1CCC(F)(F)C1)OCC(CCCCCC)CCCCCCCC (stereo not drawn) [Compound 60]	0.179	85.33 nm	55.0%	3.726	
CCCCCCCCC(CCCCCCCC)COP(=O)(NCCN1CCCC1)OCC(CCCCCCCC)CCCCCCCC [Compound 81]	0.218	56.41 nm	92.7%	5.661	
CCCCCCCCC(CCCCCC)COP(=O)(NCCCN1CCCC1)OCC(CCCCCC)CCCCCCCC (stereo not drawn) [Compound 25]	0.057	109.7 nm	52.3%	5.49	
CCCCCCCCC(C)COP(=O)(NCCN1CCCC1)OCC(C)CCCCCCCC (stereo not drawn) [Compound 68]	0.253	86.75 nm	95.0%	7.401	
CCCCCCCCC(CCCCC)COP(=O)(NCCN(CC)CC)OCC(CCCCC)CCCCCCCC (stereo not drawn) [Compound 72]	0.154	73.94 nm	95.6%	5.86	
CCCCCCCCC(CCCCCC)COP(=O)(NCCN(CCO)C1CCCCC1)OCC(CCCCCC)CCCCCCCC (stereo not drawn) [Compound 47]	0.071	73.53 nm		5.27	0.864
CCCCCCCCC(CCCCCC)COP(=O)(NCCN(CCCC)CCCC)OCC(CCCCCC)CCCCCCCC (stereo not drawn) [Compound 51]	0.167	88.45 nm	75.52%	6.66	
CCCCCCCCCCCCCOP(=O)(OCCCCCCCCCCCCC)N1CC2(CCN(C)CC2)C1 [Compound 20]	0.068	92.15 nm	94.2%	5.81	
CCCCCCCCCOC(=O)CCCCCOP(=O)(NCCCCN(C)C)OCCCCCC(=O)OCCCCCCCCC [Compound 2]	0.181	116.8 nm	98.5%	9.07	
CCCCCCCCCOP(=O)(NCCCCN(C)C)OCCCCCCCCC [Compound 1]	0.074	54.18 nm	90.3%	7.65	
CCCCCCCCC(CCC)COP(=O)(NCCN1CCCC1)OCC(CCC)CCCCCCCC (stereo not drawn) [Compound 71]	0.108	69.18 nm	94.4%	7.104	
CCCCCCCCCCCCCCOP(=O)(NCCCN(C)C)OCCCCCCCCCCCCCC [Compound 11]	0.092	107.7 nm	81.3%	8.53	
CCCCCCCCC(CCCCCC)COP(=O)(NCCN1CCOCC1)OCC(CCCCCC)CCCCCCCC (stereo not drawn) [Compound 30]	0.197	71.91 nm	16.8%	3.88	
